Assay results taken from US7462600B2, “Macrolides” (Pfizer Inc, priority 2004, dated 2008).
≈ marks a conversion by molar mass, not a printed value. Read-outs that look alike come from different tables or passages of the source.

How the values were obtained:
Format in all cases: cell-based
[1] = test system: Streptococcus pyogenes 1079; assay: MIC, microtiter broth dilution (NCCLS M100-S14), S. pyogenes 1079 (ermB)
How it was run: (§1)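 Antibacterial activity is expressed as the MIC from broth microdilution. Reading follows the NCCLS M100-S14 performance standards, and stocks are made in DMSO at 40 mg/ml.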

[2] = test system: Streptococcus pneumoniae 1016; assay: MIC, microtiter broth dilution (NCCLS M100-S14), S. pneumoniae 1016 (susceptible)
How it was run: as §1

[3] = test system: Haemophilus influenzae 1218; assay: MIC, microtiter broth dilution (NCCLS M100-S14), H. influenzae 1218 (susceptible)
How it was run: as §1

[4] = test system: Streptococcus pneumoniae 1175; settings: microtiter broth dilution
How it was run: as §1

[5] = test system: Streptococcus pneumoniae 1095; settings: microtiter broth dilution
How it was run: as §1

[6] = S. pneumoniae 1016 (susceptible)
[7] = H. influenzae 1218 (susceptible)

SMILES | MIC S. pyogenes 1079 ([1]; Streptococcus pyogenes 1079) [µg/mL] | MIC S. pneumo. 1016 ([2]; Streptococcus pneumoniae 1016) [µg/mL] | MIC H. influenzae 1218 ([3]; Haemophilus influenzae 1218) [µg/mL] | MIC S. pneumo. 1175 ([4]; Streptococcus pneumoniae 1175) [µg/mL] | MIC S. pneumo. 1095 ([5]; Streptococcus pneumoniae 1095) [µg/mL] | MIC S. pyogenes 1079 ([1]; S. pyogenes 1079 (ermB)) [µg/mL] | MIC S. pneumo. 1016 [2, 6] [µg/mL] | MIC H. influenzae 1218 [3, 7] [µg/mL] | MIC S. pneumo. 1175 ([4]; S. pneumoniae 1175 (mefA)) [µg/mL] | MIC S. pneumo. 1095 ([5]; S. pneumoniae 1095 (ermB)) [µg/mL]
CCC1OC(=O)C(C)C(=O)C(C)C(OC2OC(C)CC(N(C)C)C2O)C(C)(OC)CC(C)C(=O)C(C)C2N(CC3CN(Cc4cccc5nc[nH]c45)C3)C(=O)OC12C (centres unmarked) [4.20] | 16 (≈ 19.7 µM) | <0.06 | 0.25 (≈ 0.308 µM) | 0.25 (≈ 0.308 µM) | 0.12 (≈ 0.148 µM) |  |  |  |  | 
CCC1OC(=O)C(C)C(=O)C(C)C(OC2OC(C)CC(N(C)C)C2O)C(C)(OC)CC(C)C(=O)C(C)C2N(C3CN(Cc4cccnc4)C3)C(=O)OC12C (centres unmarked) [Example 1.03, (pyridin-3-yl)methyl] | >64.00 | <0.06 | 0.5 (≈ 0.659 µM) | 2 (≈ 2.64 µM) | <0.06 |  |  |  |  | 
CC[C@H]1OC(=O)[C@H](C)C(=O)[C@H](C)[C@@H](O[C@@H]2O[C@H](C)C[C@H](N(C)C)[C@H]2O)[C@](C)(OC)C[C@@H](C)C(=O)[C@H](C)[C@H]2N(CC3(O)CN(C(=O)c4cccc5ccncc45)C3)C(=O)O[C@]12C [7.24] |  |  |  |  |  | >64.00 | <0.06 | 2 (≈ 2.34 µM) | 1 (≈ 1.17 µM) | 2 (≈ 2.34 µM)
CC[C@H]1OC(=O)[C@H](C)C(=O)[C@H](C)[C@@H](O[C@@H]2O[C@H](C)C[C@H](N(C)C)[C@H]2O)[C@](C)(OC)C[C@@H](C)C(=O)[C@H](C)[C@H]2N(CC3(O)CN(C(=O)c4nc5ccccc5[nH]4)C3)C(=O)O[C@]12C.O=CO [7.28] |  |  |  |  |  | >64.00 | <0.06 | 2 | 0.25 | <0.06
